According to ChEMBL document CHEMBL1123256, “Neuroleptics from the 4a,9b-trans-2,3,4,4a,5,9b-hexahydro-1H-pyrido[4,3-b]indole series. 3. Carboxamidoalkyl derivatives” (J Med Chem, 1986):
Values belong to the molecule of their own block, whether it stands above or below them.

Assays:
[1] = tested on: Rattus norvegicus; assay: Compound was tested in vivo for its ability to antagonize the stereotypy in rats induced by d-amphetamine sulfate 5 h later of the treatment; value ranges from 0.32-1.0; assay type: functional
[2] = target: Dopamine receptor
Description: Compound was tested in vitro for its ability to displace [3H]spiroperidol from labeled dopamine receptors of corpus striatum

[3] = target: Dopamine receptor; remark: listed apart in the source
Description: Ability to displace [3H]spiroperidol from labeled Dopamine receptor of corpus striatum

[4] = target: Dopamine receptor; assay: Compound was tested in vitro for its ability to displace [3H]spiroperidol from labeled Dopamine receptor of corpus striatum; assay type: functional
[5] = tested on: Rattus norvegicus; assay: Compound was tested in vivo for its ability to antagonize the stereotypy in rats induced by d-amphetamine sulfate 1 hr later of the treatment; value ranges from 0.1-0.32; assay type: functional
[6] = tested on: Rattus norvegicus; assay: Compound was tested in vivo for its ability to antagonize the stereotypy in rats induced by d-amphetamine sulfate 1 hr later of the treatment; value ranges from 0.03-0.1; assay type: functional
[7] = tested on: Rattus norvegicus; assay: Compound was tested in vivo for its ability to antagonize the stereotypy in rats induced by d-amphetamine sulfate 24 hr later of the treatment; value ranges from 0.32-1.0; assay type: functional
[8] = tested on: Rattus norvegicus; assay: Compound was tested in vivo for its ability to antagonize the stereotypy in rats induced by d-amphetamine sulfate 5 hr later of the treatment; value ranges from 0.1-0.032; assay type: functional

Structure (SMILES): Cl.O=c1oc2ccccc2n1CCCCN1CC[C@@H]2C(C1)c1cc(F)ccc1N2c1ccc(F)cc1 (some centres not stated)
ED50 [1]: 0.32 mg/kg
IC50 [2]: 28 nM

IC50 [3]: 15 nM
Structure (SMILES): CC(=O)NCCCCN1CC[C@@H]2C(C1)c1cc(F)ccc1N2c1ccc(F)cc1.Cl (some centres not stated)

IC50 [3]: 16 nM
Structure (SMILES): CC(=O)NCCN1CC[C@@H]2C(C1)c1cc(F)ccc1N2c1ccc(F)cc1.Cl (some centres not stated)

IC50 [4]: 9 nM
Structure (SMILES): CC(=O)NCCCCCCCN1CC[C@@H]2C(C1)c1cc(F)ccc1N2c1ccc(F)cc1.Cl (some centres not stated)

IC50 [3]: 11 nM
Structure (SMILES): CCOC(=O)NCCCCN1CC[C@@H]2C(C1)c1cc(F)ccc1N2c1ccc(F)cc1.Cl (some centres not stated)

Structure (SMILES): Cl.N#CCCCN1CC[C@@H]2C(C1)c1cc(F)ccc1N2c1ccc(F)cc1 (some centres not stated)
ED50 [5]: 0.1 mg/kg

Structure (SMILES): CC(C(=O)CN1CC[C@@H]2C(C1)c1cc(F)ccc1N2c1ccc(F)cc1)c1ncco1.Cl (some centres not stated)
IC50 [3]: 10 nM

IC50 [3]: 10 nM
Structure (SMILES): CC(=O)NCCCN1CC[C@@H]2C(C1)c1cc(F)ccc1N2c1ccc(F)cc1.Cl (some centres not stated)
ED50 [6]: 0.03 mg/kg
ED50 [7]: 0.32 mg/kg

IC50 [3]: 9 nM
Structure (SMILES): CC(=O)NCCCCCN1CC[C@@H]2C(C1)c1cc(F)ccc1N2c1ccc(F)cc1.Cl (some centres not stated)

IC50 [3]: 28 nM
Structure (SMILES): Cl.NCCCCN1CC[C@@H]2C(C1)c1cc(F)ccc1N2c1ccc(F)cc1 (some centres not stated)

IC50 [3]: 8 nM
Structure (SMILES): CC(=O)NCCCCCCN1CC[C@@H]2C(C1)c1cc(F)ccc1N2c1ccc(F)cc1.Cl (some centres not stated)

Structure (SMILES): Cl.O=C1c2ccccc2C(=O)N1CCCCN1CC[C@@H]2C(C1)c1cc(F)ccc1N2c1ccc(F)cc1 (some centres not stated)
IC50 [2]: 27 nM

Structure (SMILES): Cl.O=C1CCCCN1CCCCN1CC[C@@H]2C(C1)c1cc(F)ccc1N2c1ccc(F)cc1 (some centres not stated)
IC50 [2]: 6.2 nM
ED50 [8]: 0.032 mg/kg
